Laboratory results: US20240269139A1, “COMPOUNDS FOR TARGETED PROTEIN DEGRADATION OF KINASES” (DANA-FARBER CANCER INSTITUTE, INC., priority 2020, published 2024)
Read-outs that look alike come from different tables or passages of the source.

Tests used:
[1] = target: extended human kinome (kinase-like proteins) (Homo sapiens, UniProt Q16875); experiment: Whole cell quantitative proteomics: extended kinome hits; details: Accession Q16875; experiment wp168
[2] = target: protein kinases (human kinome) (Homo sapiens, UniProt P11802); type: cell-based; details: experiment wp168
protein kinases (human kinome) (Homo sapiens, UniProt P11802), sequence (P11802 whole entry): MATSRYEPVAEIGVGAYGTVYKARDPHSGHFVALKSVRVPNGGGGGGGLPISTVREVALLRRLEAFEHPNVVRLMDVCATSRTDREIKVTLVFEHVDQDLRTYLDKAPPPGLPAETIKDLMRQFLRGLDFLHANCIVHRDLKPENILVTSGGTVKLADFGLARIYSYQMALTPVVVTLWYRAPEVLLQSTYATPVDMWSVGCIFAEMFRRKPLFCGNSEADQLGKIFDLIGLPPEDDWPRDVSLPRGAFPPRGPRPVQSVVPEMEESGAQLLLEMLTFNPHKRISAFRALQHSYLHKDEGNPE

[3] = target: protein kinases (human kinome) (Homo sapiens, UniProt P12931); type: cell-based
[4] = target: protein kinases (human kinome) (Homo sapiens, UniProt P41240); type: cell-based; details: experiment wp168
protein kinases (human kinome) (Homo sapiens, UniProt P41240), sequence (P41240 whole entry): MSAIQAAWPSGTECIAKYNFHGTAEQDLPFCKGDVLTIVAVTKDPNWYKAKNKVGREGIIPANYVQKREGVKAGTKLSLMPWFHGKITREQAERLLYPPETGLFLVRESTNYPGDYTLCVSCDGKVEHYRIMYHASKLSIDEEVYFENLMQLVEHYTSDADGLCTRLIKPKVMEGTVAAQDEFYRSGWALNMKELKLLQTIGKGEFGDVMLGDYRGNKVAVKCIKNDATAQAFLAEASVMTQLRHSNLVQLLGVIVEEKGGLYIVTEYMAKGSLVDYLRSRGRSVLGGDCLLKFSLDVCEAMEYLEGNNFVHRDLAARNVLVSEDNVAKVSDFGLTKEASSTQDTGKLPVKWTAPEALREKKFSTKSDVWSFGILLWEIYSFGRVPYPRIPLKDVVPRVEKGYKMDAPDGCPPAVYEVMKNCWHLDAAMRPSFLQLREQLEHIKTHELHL

[5] = target: protein kinases (human kinome) (Homo sapiens, UniProt P53350); type: cell-based; details: PLK1 P53350; experiment wp168
[6] = target: protein kinases (human kinome) (Homo sapiens, UniProt Q07912); type: cell-based
[7] = target: T1, protein kinases (human kinome) (Homo sapiens, UniProt Q8TAS1); type: cell-based; details: experiment wp168
T1 sequence (Q8TAS1 1-419): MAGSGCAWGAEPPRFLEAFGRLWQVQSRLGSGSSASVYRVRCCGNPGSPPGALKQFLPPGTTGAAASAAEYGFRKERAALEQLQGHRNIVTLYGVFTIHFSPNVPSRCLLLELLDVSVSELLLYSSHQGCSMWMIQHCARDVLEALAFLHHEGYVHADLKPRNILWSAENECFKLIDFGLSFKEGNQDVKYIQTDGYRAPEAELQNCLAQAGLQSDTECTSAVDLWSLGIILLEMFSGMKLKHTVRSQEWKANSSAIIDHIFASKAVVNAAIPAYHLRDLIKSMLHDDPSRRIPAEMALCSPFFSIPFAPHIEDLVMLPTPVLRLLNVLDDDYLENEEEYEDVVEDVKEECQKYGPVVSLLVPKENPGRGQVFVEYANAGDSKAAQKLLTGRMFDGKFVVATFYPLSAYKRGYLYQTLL

[8] = target: protein kinases (human kinome) (Homo sapiens, UniProt P35790); type: cell-based; details: CHKA P35790; experiment wp168
[9] = target: protein kinases (human kinome) (Homo sapiens, UniProt Q9H0K1); type: cell-based; details: experiment wp168
protein kinases (human kinome) (Homo sapiens, UniProt Q9H0K1), sequence (Q9H0K1 whole entry): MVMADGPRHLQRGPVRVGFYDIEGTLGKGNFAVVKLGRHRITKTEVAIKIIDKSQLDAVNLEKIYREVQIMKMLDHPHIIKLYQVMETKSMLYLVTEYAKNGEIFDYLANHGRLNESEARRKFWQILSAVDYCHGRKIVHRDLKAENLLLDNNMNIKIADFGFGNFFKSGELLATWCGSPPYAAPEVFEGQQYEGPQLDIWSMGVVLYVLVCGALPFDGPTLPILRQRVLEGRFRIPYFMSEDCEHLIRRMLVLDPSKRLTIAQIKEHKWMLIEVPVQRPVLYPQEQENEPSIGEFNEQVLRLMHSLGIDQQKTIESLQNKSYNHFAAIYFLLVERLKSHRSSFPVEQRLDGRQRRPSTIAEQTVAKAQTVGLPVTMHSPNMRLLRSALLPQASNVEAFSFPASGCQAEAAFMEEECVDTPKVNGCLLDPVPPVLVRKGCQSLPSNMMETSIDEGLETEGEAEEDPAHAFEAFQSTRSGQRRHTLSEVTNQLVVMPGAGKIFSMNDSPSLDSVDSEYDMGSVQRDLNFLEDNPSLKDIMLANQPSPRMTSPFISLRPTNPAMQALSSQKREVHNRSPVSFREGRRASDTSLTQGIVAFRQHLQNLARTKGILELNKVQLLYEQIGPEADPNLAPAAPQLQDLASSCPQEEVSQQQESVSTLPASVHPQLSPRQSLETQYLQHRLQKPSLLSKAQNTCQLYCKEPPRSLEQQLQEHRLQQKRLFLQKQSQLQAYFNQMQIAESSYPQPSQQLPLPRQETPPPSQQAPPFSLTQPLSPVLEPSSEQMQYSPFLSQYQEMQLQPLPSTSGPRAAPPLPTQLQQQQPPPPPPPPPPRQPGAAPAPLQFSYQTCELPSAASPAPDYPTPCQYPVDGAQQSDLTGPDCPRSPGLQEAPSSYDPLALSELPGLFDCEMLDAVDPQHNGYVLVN

[10] = target: protein kinases (human kinome) (Homo sapiens, UniProt P51451); type: cell-based
[11] = target: protein kinases (human kinome) (Homo sapiens, UniProt Q9HBH9); type: cell-based
protein kinases (human kinome) (Homo sapiens, UniProt Q9HBH9), sequence (Q9HBH9 whole entry): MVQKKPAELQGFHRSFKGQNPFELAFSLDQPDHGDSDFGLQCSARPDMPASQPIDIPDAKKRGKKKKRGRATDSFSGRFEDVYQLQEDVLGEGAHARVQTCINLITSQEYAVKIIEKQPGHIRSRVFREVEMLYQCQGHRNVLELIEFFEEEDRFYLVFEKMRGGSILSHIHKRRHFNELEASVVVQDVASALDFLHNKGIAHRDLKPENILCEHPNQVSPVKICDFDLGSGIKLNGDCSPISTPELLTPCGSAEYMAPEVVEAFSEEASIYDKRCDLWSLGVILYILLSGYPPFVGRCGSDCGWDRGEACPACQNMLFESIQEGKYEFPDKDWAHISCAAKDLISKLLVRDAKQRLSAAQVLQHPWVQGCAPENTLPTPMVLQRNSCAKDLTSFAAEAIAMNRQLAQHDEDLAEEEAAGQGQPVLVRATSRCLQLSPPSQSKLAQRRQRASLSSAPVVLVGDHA

[12] = target: protein kinases (human kinome) (Homo sapiens, UniProt P04183); type: cell-based; details: TK1 (P04183); experiment wp168
[13] = tested on: protein kinases (human kinome); type: cell-based
[14] = target: protein kinases (human kinome) (Homo sapiens, UniProt P16591); type: cell-based
[15] = target: protein kinases (human kinome) (Homo sapiens, UniProt P53667); type: cell-based; details: LIMK1 (P53667-1), experiment wp168
protein kinases (human kinome) (Homo sapiens, UniProt P53667), sequence (P53667 whole entry): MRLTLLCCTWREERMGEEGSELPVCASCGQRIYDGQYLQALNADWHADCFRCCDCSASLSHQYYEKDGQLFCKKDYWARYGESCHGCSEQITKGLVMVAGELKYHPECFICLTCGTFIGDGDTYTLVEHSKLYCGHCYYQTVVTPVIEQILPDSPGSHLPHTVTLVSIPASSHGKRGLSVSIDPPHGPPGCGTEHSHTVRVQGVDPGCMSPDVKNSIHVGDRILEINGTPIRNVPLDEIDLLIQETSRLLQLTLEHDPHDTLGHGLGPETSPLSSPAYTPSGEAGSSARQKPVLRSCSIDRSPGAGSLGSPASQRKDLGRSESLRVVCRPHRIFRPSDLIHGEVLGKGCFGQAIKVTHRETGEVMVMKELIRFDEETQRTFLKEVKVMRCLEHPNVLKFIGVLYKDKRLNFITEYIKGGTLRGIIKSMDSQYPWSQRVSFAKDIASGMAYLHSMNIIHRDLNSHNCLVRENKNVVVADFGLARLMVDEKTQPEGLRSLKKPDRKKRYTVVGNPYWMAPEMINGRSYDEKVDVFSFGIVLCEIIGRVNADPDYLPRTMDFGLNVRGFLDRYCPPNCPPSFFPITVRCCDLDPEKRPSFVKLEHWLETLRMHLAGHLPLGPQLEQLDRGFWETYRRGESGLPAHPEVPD

[16] = target: protein kinases (human kinome) (Homo sapiens, UniProt P45984); type: cell-based; details: MAPK9 P45984-1; experiment wp168
[17] = target: protein kinases (human kinome) (Homo sapiens, UniProt P06239); type: cell-based; details: experiment wp168
[18] = target: protein kinases (human kinome) (Homo sapiens, UniProt P49759); type: cell-based
[19] = target: protein kinases (human kinome) (Homo sapiens, UniProt P07947); type: cell-based; details: YES1 (P07947), experiment wp168
protein kinases (human kinome) (Homo sapiens, UniProt P07947), sequence (P07947 whole entry): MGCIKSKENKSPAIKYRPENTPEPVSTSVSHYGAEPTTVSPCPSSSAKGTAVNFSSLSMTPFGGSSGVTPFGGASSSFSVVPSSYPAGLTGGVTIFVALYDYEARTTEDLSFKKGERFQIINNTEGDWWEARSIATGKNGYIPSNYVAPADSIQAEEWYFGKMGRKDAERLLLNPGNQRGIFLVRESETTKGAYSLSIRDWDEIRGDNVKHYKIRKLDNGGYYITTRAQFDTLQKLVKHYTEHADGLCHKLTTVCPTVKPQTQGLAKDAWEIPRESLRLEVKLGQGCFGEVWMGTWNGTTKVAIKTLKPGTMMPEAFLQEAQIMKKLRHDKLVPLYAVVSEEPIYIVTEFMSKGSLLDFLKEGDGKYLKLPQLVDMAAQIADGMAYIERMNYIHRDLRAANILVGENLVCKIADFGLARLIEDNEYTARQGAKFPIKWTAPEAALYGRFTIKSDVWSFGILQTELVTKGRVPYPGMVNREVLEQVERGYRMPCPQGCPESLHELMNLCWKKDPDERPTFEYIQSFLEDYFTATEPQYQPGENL

[20] = target: T2, protein kinases (human kinome) (Homo sapiens, UniProt Q9UEE5); type: cell-based; details: STK17A Q9UEE5; experiment wp088
T2 sequence (Q9UEE5 1-414): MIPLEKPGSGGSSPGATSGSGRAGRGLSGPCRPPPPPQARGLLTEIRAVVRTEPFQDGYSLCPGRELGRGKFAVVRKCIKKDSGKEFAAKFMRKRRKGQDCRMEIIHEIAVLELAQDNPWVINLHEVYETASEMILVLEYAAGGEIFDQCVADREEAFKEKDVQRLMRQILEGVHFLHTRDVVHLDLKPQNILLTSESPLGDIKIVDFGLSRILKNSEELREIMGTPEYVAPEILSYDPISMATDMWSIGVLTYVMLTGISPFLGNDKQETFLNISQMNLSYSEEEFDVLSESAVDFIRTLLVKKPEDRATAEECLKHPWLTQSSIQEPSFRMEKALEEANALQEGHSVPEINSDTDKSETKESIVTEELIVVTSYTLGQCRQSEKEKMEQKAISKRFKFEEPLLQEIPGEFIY

[21] = target: protein kinases (human kinome) (Homo sapiens, UniProt P50750); type: cell-based; details: experiment wp164
[22] = target: protein kinases (human kinome) (Homo sapiens, UniProt Q96GD4); type: cell-based; details: experiment wp164
protein kinases (human kinome) (Homo sapiens, UniProt Q96GD4), sequence (Q96GD4 whole entry): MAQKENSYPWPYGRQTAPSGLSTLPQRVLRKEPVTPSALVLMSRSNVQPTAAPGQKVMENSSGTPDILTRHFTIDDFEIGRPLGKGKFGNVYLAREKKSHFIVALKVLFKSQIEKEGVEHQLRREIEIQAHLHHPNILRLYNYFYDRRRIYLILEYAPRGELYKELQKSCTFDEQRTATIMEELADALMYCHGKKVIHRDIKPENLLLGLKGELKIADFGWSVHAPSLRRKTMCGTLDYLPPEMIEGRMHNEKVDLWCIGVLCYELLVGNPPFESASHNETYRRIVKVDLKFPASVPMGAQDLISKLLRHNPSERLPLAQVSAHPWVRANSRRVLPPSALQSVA

[23] = target: T3, protein kinases (human kinome) (Homo sapiens, UniProt P33981); type: cell-based; details: experiment wp164
T3 sequence (P33981 1-857): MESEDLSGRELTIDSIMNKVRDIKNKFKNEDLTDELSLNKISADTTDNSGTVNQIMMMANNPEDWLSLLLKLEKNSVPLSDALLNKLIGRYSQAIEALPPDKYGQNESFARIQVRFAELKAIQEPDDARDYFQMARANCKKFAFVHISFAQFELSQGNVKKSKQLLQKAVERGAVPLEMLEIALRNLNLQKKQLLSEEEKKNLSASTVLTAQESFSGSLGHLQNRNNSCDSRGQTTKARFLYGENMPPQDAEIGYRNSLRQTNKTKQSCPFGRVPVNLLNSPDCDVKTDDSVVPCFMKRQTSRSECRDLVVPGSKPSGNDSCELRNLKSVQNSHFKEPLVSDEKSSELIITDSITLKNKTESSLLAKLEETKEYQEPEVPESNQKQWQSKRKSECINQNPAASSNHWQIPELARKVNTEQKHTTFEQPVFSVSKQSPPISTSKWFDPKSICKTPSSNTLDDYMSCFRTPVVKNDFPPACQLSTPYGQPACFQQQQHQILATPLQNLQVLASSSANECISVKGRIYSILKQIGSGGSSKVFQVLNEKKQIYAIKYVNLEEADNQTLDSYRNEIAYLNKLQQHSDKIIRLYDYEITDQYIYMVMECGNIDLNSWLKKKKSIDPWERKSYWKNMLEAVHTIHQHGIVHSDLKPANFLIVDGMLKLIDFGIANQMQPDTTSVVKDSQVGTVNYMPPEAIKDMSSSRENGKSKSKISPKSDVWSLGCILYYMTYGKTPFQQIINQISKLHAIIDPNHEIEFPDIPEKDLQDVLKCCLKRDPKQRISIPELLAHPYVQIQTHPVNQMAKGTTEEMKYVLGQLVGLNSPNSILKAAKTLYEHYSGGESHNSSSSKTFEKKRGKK

[24] = target: protein kinases (human kinome) (Homo sapiens, UniProt Q00534); type: cell-based; details: for logFC CDK6: CDK6 (Q00534), direction down; for logFC of CDK6 (Q00534): down
protein kinases (human kinome) (Homo sapiens, UniProt Q00534), sequence (Q00534 whole entry): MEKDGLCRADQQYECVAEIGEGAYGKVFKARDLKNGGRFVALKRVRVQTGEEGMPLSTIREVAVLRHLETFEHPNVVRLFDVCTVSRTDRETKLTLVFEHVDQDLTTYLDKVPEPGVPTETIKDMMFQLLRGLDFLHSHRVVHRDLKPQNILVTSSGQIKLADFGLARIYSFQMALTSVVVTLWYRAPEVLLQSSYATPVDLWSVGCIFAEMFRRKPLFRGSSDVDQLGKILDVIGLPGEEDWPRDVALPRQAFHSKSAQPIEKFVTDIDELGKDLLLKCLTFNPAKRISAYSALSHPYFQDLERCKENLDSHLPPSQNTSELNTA

[25] = target: protein kinases (human kinome) (Homo sapiens, UniProt Q9HBU6); type: cell-based; details: protein ETNK1 (Q9HBU6-1); experiment wp088; down
[26] = target: T4, protein kinases (human kinome) (Homo sapiens, UniProt O14965); type: cell-based
T4 sequence (O14965 1-403): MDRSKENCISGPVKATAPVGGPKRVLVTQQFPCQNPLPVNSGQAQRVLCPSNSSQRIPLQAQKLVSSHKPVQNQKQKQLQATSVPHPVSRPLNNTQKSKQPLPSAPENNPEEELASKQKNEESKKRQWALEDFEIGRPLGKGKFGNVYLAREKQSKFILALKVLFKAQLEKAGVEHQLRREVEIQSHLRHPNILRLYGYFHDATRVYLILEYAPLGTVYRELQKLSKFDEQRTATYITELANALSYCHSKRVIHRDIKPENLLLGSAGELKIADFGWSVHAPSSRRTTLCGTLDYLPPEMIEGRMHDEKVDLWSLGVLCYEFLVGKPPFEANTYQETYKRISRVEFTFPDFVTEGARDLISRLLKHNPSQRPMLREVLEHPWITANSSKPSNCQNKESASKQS

[27] = target: protein kinases (human kinome) (Homo sapiens, UniProt Q2M2I8); type: cell-based
protein kinases (human kinome) (Homo sapiens, UniProt Q2M2I8), sequence (Q2M2I8 whole entry): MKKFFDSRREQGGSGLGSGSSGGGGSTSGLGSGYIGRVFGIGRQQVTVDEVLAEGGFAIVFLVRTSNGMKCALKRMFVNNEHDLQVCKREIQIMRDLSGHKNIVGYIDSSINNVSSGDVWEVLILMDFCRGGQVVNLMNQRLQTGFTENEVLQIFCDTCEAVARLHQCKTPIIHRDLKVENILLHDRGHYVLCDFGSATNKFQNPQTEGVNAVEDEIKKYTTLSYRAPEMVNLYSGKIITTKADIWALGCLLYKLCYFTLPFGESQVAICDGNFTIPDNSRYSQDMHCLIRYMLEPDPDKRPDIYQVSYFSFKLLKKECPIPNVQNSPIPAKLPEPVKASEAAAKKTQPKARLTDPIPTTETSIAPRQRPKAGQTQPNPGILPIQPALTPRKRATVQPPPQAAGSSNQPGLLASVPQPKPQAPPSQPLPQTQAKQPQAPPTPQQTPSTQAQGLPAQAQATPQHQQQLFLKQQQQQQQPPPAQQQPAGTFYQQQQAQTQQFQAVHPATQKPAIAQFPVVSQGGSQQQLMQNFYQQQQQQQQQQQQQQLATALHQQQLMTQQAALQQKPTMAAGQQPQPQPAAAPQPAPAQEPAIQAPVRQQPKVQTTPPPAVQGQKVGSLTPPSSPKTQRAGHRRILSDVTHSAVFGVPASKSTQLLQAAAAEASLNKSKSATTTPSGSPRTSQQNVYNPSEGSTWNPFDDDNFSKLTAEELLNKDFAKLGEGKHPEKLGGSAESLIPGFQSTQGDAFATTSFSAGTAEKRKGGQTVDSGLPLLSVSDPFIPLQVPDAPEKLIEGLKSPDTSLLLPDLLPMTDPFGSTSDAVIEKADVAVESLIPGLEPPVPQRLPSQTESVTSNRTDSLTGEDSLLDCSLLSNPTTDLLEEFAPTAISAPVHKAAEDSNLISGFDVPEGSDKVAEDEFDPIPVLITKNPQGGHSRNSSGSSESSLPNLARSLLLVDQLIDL

[28] = Experiment wp168, direction down
[29] = AURKB Q96GD4-5, experiment wp088

In the case of `Cc1ccc(NC(=O)c2cccc(C(F)(F)F)c2)cc1N1Cc2cnc(Nc3ccc(N4CCN(CCOc5cccc6c5C(=O)N(C5CCC(=O)NC5=O)C6=O)CC4)nc3)nc2N(C)C1=O` (centres unmarked) [DB0661], the “logFC PFKFB3” value [1] was −0.4392, the “logFC CDK4 (P11802)” value [2] was −0.4978 and the “logFC of SRC” value ([3]; Accession P12931, experiment wp168) was −0.6685. For the same compound, the “logFC of SRC (P12931)” value ([3]; Experiment wp168) was −0.6685, the “logFC of CSK” value ([4]; Accession P41240) was −1.526 and the “logFC CSK” value ([4]; CSK (P41240), down) was −1.526. For the same compound, the logFC [5] was −0.3453, the “logFC PLK1” value [5] was −0.3453 and the “logFC TNK2 (Q07912-1)” value [6, 28] was −0.3873. For the same compound, the “logFC TNK2” value ([6]; TNK2 (Q07912-1), experiment wp168) was −0.3873, the “logFC UHMK1” value ([7]; Accession Q8TAS1, direction down) was −0.416 and the “logFC UHMK1” value ([7]; UHMK1 (Q8TAS1)) was −0.416. For the same compound, the logFC [8] was −0.3607, the “logFC of SIK2” value ([9]; Accession Q9H0K1) was −0.3628 and the “logFC SIK2 (Q9H0K1)” value ([9]; direction of change down) was −0.3628. The “logFC BLK” value ([10]; BLK (P51451), direction down, experiment wp168) was −1.428, the “logFC of BLK (P51451)” value ([10]; Experiment wp168, down) was −1.428 and the “logFC MKNK2 (Q9HBH9-1)” value [11, 28] was −0.5094. For the same compound, the logFC ([11]; MKNK2 (Q9HBH9-1), experiment wp168) was −0.5094, the logFC [12] was −0.3523 and the “logFC MAPK8 (P45983-4)” value [13, 28] was −0.5033. The “logFC MAPK8” value ([13]; MAPK8 P45983-4, experiment wp168) was −0.5033, the logFC ([13]; PTK2B (Q14289-2), experiment wp168, direction down) was −1.935 and the “logFC PTK2B” value ([13]; PTK2B, accession Q14289-2, experiment wp168, direction of change down) was −1.935. For the same compound, the “kinases the bifunctional compound degrades” value ([13]; as stated for the structure in the embodiments) was “BLK, CDK4, CLK1, CSK, FER, LCK, LIMK1, MAPK8, MAPK9, MKNK2, PLK1, PTK2B, SIKA2, SRC, TNK2, UHMK1, and YES1”, the Kinase hits ([13]; kinases significantly downregulated vs DMSO (fold change cutoff −1.25, P-value<0.01), ≤8 h, 0.1-5 μM degrader, 7 cell lines) was “BLK, CDK4, CLK1, CSK, FER, LCK, LIMK1, MAPK8, MAPK9, MKNK2, PLK1, PTK2B, SIKa2, SRC, TNK2, UHMK1, YES1” and the “Total no. kinase hits” value ([13]; number of degraded kinases per library compound) was 17. The “logFC of FER (P16591-1)” value ([14]; Experiment wp168, down) was −0.6143, the “logFC of FER” value ([14]; FER P16591-1, experiment wp168) was −0.6143 and the “logFC LIMK1” value ([15]; direction down) was −1.116. The “logFC LIMK1” value ([15]; down) was −1.116, the logFC [16] was −1.961 and the “logFC MAPK9” value [16] was −1.961. The “logFC LCK” value ([17]; LCK P06239-1) was −0.4717, the “logFC LCK” value ([17]; LCK, accession P06239-1, direction of change down) was −0.4717 and the “logFC CLK1” value ([18]; CLK1 P49759, experiment wp168) was −0.3319. For the same compound, the “logFC of CLK1 (P49759)” value ([18]; Experiment wp168) was −0.3319, the logFC [19] was −0.5229 and the logFC ([19]; direction down) was −0.5229.
For `O=C(CCCCCCNC(=O)COc1cccc2c1C(=O)N(C1CCC(=O)NC1=O)C2=O)NCCOc1ccc(Nc2ncc3ccc(=O)n(C4CC5CCC4C5)c3n2)cc1` (centres unmarked) [SB1.G.194], the logFC [20] was −0.6434, the “logFC STK17A” value [20] was −0.6434 and the “logFC CDK9 (P50750)” value [21] was −0.8391. The “logFC of CDK9 (P50750)” value [21] was −0.8391, the “logFC AURKB” value ([22]; AURKB Q96GD4) was −0.4883 and the “logFC of AURKB (Q96GD4)” value [22] was −0.4883. For the same compound, the “logFC TTK” value ([23]; Accession P33981) was −0.4279, the “logFC TTK (P33981)” value [23] was −0.4279 and the “logFC CDK6” value ([24]; experiment wp088) was −0.4731. The “logFC CDK6” value ([24]; experiment wp164) was −1.23, the “logFC of CDK6 (Q00534)” value ([24]; Experiment wp088) was −0.4731 and the “logFC of CDK6 (Q00534)” value ([24]; Experiment wp164) was −1.23. For the same compound, the logFC [13, 29] was −0.3846, the “logFC AURKB” value [13, 29] was −0.3846 and the “logFC FGFR2 (P21802-11)” value ([13]; Experiment wp088, direction of change down) was −0.4804. For the same compound, the “logFC FGFR2” value ([13]; protein FGFR2 (P21802-11), experiment wp088, down) was −0.4804, the “logFC ETNK1” value [25] was −0.3662 and the “logFC AURKA (O14965)” value ([26]; experiment wp088) was −1.175. For the same compound, the “logFC AURKA (O14965)” value ([26]; experiment wp164) was −2.035, the “logFC AAK1” value ([27]; AAK1 (Q2M218-1), experiment wp088, down) was −0.3482 and the “logFC AAK1” value ([27]; AAK1 (Q2M218-1), experiment wp164, down) was −0.379. The “logFC AAK1” value ([27]; AAK1, accession Q2M218-1, experiment wp088, direction of change down) was −0.3482 and the “logFC AAK1” value ([27]; AAK1, accession Q2M218-1, experiment wp164, direction of change down) was −0.379.
